{"source": "patent US20070293937A1", "about": "“Endoluminal medical device for local delivery of cathepsin inhibitors, method of making and treating” (MED Institute, Inc., priority 2006, published 2007)", "origin": "cited, not measured here", "key": {"[1]": {"biological_target": "cathepsin C", "details": "Tompson et al."}, "[2]": {"biological_target": "cathepsin C (Homo sapiens, UniProt P53634)", "sequence (P53634 25-463, species assumed)": "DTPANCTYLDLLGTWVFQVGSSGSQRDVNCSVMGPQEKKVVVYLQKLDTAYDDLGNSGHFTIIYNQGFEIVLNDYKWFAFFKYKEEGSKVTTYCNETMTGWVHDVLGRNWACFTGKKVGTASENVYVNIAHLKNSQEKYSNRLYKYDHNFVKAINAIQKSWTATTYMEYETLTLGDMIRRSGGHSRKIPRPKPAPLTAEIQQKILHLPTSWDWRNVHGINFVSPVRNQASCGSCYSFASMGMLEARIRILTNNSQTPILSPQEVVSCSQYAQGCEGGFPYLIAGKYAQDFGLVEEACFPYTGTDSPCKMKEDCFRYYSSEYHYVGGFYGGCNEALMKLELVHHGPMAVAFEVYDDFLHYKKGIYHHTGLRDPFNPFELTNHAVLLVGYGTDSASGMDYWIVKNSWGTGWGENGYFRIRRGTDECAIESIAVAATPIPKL", "details": "natural inhibitors"}, "[3]": {"tested_on": "cathepsin C", "details": "Green and Shaw, J. Biol. Chem. 1981"}, "[4]": {"tested_on": "purified cathepsin C", "details": "as found by Kam et al."}}, "note": "pKi: −log10 of the molar value. Where a SMILES comes first, the peptide text is derived from it. The star is where a group is joined. CHN2 = [N-]=[N+]=C*"}
{"compound": "N#CC(Cc1ccccc1)NC(=O)CN", "note": "(stereo not shown) [Gly-NHCH(CH2Ph)CN]", "values": [{"measurement": "pKi", "setting": "[1]; reversible nitrile inhibitor, J. Med. Chem. 1986, read-out: Kl value", "result": 5.57}]}
{"compound": "CC(C)C[C@H](NC(=O)[C@H]1O[C@@H]1C(=O)O)C(=O)NCCCCN=C(N)N", "note": "[Compound E-64, E-64]", "values": [{"measurement": "inhibition of cathepsin C (in words)", "setting": "[2]", "result": "inhibit cathepsin C at high inhibitor concentrations"}]}
{"compound": "CC(=O)N[C@@H](CC(C)C)C(=O)N[C@@H](CC(C)C)C(=O)N[C@H](C=O)CCCNC(=N)N", "note": "[leupeptin]", "values": [{"measurement": "inhibition of cathepsin C (in words)", "setting": "[2]", "result": "inhibit cathepsin C at high inhibitor concentrations"}]}
{"compound": "cystatin", "values": [{"measurement": "inhibition of cathepsin C (in words)", "setting": "[2]", "result": "inhibit cathepsin C at high inhibitor concentrations"}]}
{"compound": "[N-]=[N+]=CC(=O)[C@H](Cc1ccccc1)NC(=O)CN", "note": "[Gly-Phe-CHN2] (H-Gly-Phe-CHN2)", "values": [{"measurement": "kobs/[l]", "setting": "[3]", "result": "10^4 M^−1 s^−1"}, {"measurement": "inhibition of cathepsin C (in words)", "setting": "[4]", "result": "potent inhibitor"}]}
{"compound": "CS(=O)(=O)C=CC(Cc1ccccc1)NC(=O)CN", "note": "(stereo not drawn) [Gly-Phe-VS—CH3]", "values": [{"measurement": "k2/Kl", "setting": "[1]; J. Med. Chem. 1986", "result": 56, "unit": "M⁻¹ s⁻¹"}]}
